According to the kinase profiling compilation of Christmann-Franck et al. (2016):

Columns and labels:
Test in all cases: radiometric filter-binding kinase assay, Kinase HotSpot
Settings in all cases: compound 0.5 µM; ATP 10 µM
PRKACG (human) = PRKACG (human) (UniProt P22612)
NEK7 (human) = NEK7 (human) (UniProt Q8TDX7)
CSNK1E (human) = CSNK1E (human) (UniProt P49674)
TLK2 (human) = TLK2 (human) (UniProt Q86UE8)
DCLK2 (human) = DCLK2 (human) (UniProt Q8N568)
EPHB4 (human) = EPHB4 (human) (UniProt P54760)
CDK5 CDK5R1 p35 (human) = CDK5 CDK5R1 p35 (human) (UniProt Q00535+Q15078)
WEE1 (human) = WEE1 (human) (UniProt P30291)
WEE1 (human), sequence (P30291 whole entry, looked up): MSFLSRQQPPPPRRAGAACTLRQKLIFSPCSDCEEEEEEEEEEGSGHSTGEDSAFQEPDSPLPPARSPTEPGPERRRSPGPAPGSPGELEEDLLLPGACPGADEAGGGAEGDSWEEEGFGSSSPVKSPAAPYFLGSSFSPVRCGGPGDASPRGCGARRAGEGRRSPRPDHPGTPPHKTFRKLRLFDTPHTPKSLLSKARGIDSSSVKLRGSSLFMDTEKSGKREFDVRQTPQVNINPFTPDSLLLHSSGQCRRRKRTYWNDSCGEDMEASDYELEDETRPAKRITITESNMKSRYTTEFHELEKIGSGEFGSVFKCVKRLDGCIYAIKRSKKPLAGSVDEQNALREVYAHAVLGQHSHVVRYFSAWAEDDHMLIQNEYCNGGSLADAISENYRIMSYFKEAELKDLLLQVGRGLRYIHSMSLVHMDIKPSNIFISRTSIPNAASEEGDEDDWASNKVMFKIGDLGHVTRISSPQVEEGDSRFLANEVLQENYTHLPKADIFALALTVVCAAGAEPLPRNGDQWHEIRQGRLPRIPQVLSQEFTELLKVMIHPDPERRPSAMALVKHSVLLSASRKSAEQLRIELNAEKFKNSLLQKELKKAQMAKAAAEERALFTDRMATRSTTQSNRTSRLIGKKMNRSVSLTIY

ULK3 (human) = ULK3 (human) (UniProt Q6PHR2)
STK4 (human) = STK4 (human) (UniProt Q13043)
RAF1 (human) = RAF1 (human) (UniProt P04049)
MYLK (human) = MYLK (human) (UniProt Q15746)
FGFR1 (human) = FGFR1 (human) (UniProt P11362)
PLK2 (human) = PLK2 (human) (UniProt Q9NYY3)
ERBB2 (human) = ERBB2 (human) (UniProt P04626)
EPHA6 (human) = EPHA6 (human) (UniProt Q9UF33)
MAPK12 (human) = MAPK12 (human) (UniProt P53778)
MAPK12 (human), sequence (P53778 whole entry, looked up): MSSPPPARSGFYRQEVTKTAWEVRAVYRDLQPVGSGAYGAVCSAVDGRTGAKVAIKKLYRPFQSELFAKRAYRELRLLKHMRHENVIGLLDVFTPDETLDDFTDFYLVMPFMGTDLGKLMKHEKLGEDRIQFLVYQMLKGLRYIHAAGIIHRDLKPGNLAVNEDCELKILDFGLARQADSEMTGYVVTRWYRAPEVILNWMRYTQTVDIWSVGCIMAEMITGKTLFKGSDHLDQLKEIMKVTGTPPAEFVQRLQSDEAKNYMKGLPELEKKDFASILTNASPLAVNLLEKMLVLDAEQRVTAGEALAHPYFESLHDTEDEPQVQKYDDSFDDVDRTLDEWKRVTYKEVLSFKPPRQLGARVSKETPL

PAK1 (human) = PAK1 (human) (UniProt Q13153)
ABL1 (human) = ABL1 (human) (UniProt P00519)
PLK1 (human) = PLK1 (human) (UniProt P53350)
MARK2 (human) = MARK2 (human) (UniProt Q7KZI7)
CHUK (human) = CHUK (human) (UniProt O15111)
[1] = test system: ARAF (human), P10398 [Y301D/Y302D]
ARAF (human), P10398 [Y301D/Y302D], sequence (P10398 whole entry Y301D/Y302D, looked up): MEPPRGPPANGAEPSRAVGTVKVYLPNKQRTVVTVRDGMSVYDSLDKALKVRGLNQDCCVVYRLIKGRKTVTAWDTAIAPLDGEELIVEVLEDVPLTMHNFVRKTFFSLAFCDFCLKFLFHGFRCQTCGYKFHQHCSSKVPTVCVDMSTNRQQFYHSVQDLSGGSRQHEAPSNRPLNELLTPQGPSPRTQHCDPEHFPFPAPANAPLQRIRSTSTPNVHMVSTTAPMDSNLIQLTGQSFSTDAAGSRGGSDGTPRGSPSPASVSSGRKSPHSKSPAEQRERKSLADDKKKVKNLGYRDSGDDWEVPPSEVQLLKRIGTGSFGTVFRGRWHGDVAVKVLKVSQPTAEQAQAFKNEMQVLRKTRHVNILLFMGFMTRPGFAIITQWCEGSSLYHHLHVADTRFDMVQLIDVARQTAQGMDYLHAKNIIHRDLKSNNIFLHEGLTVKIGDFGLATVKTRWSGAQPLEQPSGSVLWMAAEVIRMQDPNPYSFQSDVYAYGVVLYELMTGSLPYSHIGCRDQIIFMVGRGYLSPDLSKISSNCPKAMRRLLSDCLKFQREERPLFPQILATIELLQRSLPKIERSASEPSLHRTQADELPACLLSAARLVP

CLK2 (human) = CLK2 (human) (UniProt P49760)
AURKA (human) = AURKA (human) (UniProt O14965)
FES (human) = FES (human) (UniProt P07332)
PBK (human) = PBK (human) (UniProt Q96KB5)
MYO3B (human) = MYO3B (human) (UniProt Q8WXR4)
MYO3B (human), sequence (Q8WXR4 whole entry, looked up): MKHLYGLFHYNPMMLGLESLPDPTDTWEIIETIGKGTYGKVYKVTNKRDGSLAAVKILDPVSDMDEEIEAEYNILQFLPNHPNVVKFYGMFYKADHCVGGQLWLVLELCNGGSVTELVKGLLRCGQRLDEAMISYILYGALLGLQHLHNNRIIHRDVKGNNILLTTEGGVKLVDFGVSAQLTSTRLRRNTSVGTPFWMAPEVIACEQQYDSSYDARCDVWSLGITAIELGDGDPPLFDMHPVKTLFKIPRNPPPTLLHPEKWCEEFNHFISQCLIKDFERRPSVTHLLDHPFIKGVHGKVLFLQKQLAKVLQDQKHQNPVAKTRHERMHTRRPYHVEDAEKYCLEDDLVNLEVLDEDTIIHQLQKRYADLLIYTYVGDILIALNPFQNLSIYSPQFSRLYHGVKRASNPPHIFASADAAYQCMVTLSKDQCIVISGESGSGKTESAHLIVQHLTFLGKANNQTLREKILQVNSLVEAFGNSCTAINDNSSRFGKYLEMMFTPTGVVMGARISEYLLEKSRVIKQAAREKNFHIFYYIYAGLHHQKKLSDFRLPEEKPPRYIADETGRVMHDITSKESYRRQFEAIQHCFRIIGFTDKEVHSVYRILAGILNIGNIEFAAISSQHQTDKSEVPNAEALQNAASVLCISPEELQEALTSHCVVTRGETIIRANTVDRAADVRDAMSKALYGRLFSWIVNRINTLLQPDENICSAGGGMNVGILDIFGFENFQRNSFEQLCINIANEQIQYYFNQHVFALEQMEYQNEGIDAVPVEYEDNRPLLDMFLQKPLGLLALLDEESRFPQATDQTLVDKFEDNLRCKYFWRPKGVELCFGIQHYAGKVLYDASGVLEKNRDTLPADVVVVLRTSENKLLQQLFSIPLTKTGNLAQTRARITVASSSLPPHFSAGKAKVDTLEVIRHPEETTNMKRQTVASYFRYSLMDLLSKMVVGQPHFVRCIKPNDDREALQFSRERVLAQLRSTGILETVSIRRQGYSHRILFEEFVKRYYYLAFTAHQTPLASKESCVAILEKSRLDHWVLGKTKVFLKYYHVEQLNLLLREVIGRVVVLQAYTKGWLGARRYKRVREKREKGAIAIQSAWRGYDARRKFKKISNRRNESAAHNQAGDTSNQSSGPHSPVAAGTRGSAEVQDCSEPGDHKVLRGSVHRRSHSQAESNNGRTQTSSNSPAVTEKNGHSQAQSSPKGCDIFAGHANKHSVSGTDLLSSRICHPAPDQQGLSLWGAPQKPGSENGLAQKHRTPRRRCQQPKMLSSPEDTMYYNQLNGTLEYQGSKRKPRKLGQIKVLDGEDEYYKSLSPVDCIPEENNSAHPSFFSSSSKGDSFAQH

STK38 (human) = STK38 (human) (UniProt Q15208)
STK38 (human), sequence (Q15208 whole entry, looked up): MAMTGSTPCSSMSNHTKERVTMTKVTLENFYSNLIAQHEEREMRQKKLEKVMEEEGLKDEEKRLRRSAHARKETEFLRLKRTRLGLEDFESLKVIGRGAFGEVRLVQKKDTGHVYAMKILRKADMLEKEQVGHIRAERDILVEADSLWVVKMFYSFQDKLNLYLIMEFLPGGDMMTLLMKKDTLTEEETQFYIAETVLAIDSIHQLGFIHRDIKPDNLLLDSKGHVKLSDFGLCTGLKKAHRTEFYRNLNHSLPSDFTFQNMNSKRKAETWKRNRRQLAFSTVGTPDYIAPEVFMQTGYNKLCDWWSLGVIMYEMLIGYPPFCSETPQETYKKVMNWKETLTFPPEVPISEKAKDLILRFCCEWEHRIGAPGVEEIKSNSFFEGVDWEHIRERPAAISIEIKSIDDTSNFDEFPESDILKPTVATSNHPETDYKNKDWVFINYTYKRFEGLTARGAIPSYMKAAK

CSNK2A2 (human) = CSNK2A2 (human) (UniProt P19784)
ACVR1 (human) = ACVR1 (human) (UniProt Q04771)
BRAF (human) = BRAF (human) (UniProt P15056)
MAP3K10 (human) = MAP3K10 (human) (UniProt Q02779)
PRKD2 (human) = PRKD2 (human) (UniProt Q9BZL6)
GRK6 (human) = GRK6 (human) (UniProt P43250)
GRK6 (human), sequence (P43250 whole entry, looked up): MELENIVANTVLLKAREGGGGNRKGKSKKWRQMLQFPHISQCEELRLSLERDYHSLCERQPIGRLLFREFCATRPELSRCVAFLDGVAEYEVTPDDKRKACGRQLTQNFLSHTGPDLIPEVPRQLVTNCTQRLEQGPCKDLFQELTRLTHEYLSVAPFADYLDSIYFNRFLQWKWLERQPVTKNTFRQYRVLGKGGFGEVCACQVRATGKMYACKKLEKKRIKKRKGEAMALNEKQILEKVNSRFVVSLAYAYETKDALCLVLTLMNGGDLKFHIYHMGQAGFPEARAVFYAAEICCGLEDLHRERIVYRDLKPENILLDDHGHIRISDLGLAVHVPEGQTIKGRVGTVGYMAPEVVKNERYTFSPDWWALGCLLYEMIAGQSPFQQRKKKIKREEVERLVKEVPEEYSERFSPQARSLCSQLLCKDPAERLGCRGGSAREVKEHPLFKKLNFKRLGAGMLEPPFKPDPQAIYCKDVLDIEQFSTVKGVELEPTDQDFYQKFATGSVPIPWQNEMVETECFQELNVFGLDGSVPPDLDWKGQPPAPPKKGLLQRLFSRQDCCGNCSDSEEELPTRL

CDC42BPB (human) = CDC42BPB (human) (UniProt Q9Y5S2)
PRKCE (human) = PRKCE (human) (UniProt Q02156)
PRKCE (human), sequence (Q02156 whole entry, looked up): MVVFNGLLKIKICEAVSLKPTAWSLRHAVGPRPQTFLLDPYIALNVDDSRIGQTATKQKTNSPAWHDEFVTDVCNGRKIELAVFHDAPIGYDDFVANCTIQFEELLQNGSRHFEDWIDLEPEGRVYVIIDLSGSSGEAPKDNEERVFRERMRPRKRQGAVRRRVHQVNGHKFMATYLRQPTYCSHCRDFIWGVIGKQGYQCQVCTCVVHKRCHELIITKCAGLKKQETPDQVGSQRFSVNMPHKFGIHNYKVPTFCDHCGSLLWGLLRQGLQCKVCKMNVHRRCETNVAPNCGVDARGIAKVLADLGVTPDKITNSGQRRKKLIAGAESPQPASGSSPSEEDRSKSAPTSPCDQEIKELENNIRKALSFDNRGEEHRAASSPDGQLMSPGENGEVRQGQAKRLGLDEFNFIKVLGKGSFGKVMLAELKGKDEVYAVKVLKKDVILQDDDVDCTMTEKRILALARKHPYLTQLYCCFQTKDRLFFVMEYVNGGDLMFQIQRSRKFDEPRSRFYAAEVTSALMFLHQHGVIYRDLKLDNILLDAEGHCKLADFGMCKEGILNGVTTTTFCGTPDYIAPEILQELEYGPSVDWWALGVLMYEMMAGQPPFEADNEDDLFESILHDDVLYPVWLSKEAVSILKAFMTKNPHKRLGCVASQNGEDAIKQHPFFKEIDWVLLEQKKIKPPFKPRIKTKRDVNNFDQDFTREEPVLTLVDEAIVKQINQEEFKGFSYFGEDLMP

NUAK2 (human) = NUAK2 (human) (UniProt Q9H093)
MAPK1 (human) = MAPK1 (human) (UniProt P28482)
PDGFRB (human) = PDGFRB (human) (UniProt P09619)

NEK7 (human), sequence (Q8TDX7 whole entry, looked up): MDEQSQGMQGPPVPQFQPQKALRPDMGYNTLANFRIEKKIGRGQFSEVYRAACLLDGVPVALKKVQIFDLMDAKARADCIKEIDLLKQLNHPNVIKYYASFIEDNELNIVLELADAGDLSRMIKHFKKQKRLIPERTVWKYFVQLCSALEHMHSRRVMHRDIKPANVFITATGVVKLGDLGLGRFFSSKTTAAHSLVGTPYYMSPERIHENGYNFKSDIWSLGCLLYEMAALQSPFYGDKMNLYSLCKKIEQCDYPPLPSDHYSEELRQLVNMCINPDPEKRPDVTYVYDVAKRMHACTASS

SMILES | residual activity (PRKACG (human)) [%] | residual activity (NEK7 (human)) [%] | residual activity (CSNK1E (human)) [%] | residual activity (TLK2 (human)) [%] | residual activity (DCLK2 (human)) [%] | residual activity (EPHB4 (human)) [%] | residual activity (CDK5 CDK5R1 p35 (human)) [%] | residual activity (WEE1 (human)) [%] | residual activity (ULK3 (human)) [%] | residual activity (STK4 (human)) [%] | residual activity (RAF1 (human)) [%] | residual activity (MYLK (human)) [%] | residual activity (FGFR1 (human)) [%] | residual activity (PLK2 (human)) [%] | residual activity (ERBB2 (human)) [%] | residual activity (EPHA6 (human)) [%] | residual activity (MAPK12 (human)) [%] | residual activity (PAK1 (human)) [%] | residual activity (PLK1 (human)) [%] | residual activity (MARK2 (human)) [%] | further results
Clc1ccc(Nc2nnc(Cc3ccncc3)c3ccccc23)cc1 | 116 | 96.8 | 99.1 | 102 | 100 | 85.1 | 97.2 | 109 | 101 | 105 | 93.3 | 97.5 | 97.2 | 101 | 101 | 101 | 96.8 | 116 | 95.9 | 133 | residual activity (ABL1 (human)): 96.5%; residual activity (CHUK (human)): 104%; residual activity [1]: 97.6%; residual activity (CLK2 (human)): 87.6%; residual activity (AURKA (human)): 79%; residual activity (FES (human)): 94.7%; residual activity (PBK (human)): 108%; residual activity (MYO3B (human)): 102%; residual activity (STK38 (human)): 100%; residual activity (CSNK2A2 (human)): 106%; residual activity (ACVR1 (human)): 96.1%; residual activity (BRAF (human)): 92.2%; residual activity (MAP3K10 (human)): 110%; residual activity (PRKD2 (human)): 86%; residual activity (GRK6 (human)): 99.9%; residual activity (CDC42BPB (human)): 99.5%; residual activity (PRKCE (human)): 100%; residual activity (NUAK2 (human)): 105%; residual activity (MAPK1 (human)): 87.6%
Oc1ccc(-c2nc(-c3ccc(F)cc3)c(-c3ccncc3)[nH]2)cc1 | 78.4 | 103 | 32.7 | 97.4 | 102 | 89 | 97.3 | 94.9 | 85.5 | 105 | 25.8 | 106 | 86.8 | 98.7 | 95.5 | 57.3 | 102 | 97.3 | 100 | 99 | residual activity (PDGFRB (human)): 104%; residual activity (CHUK (human)): 107%; residual activity [1]: 31.1%; residual activity (CLK2 (human)): 105%; residual activity (AURKA (human)): 96.1%; residual activity (FES (human)): 101%; residual activity (PBK (human)): 100%; residual activity (MYO3B (human)): 101%; residual activity (STK38 (human)): 99.8%; residual activity (CSNK2A2 (human)): 95.9%; residual activity (ACVR1 (human)): 106%; residual activity (BRAF (human)): 60.5%; residual activity (MAP3K10 (human)): 32.8%; residual activity (PRKD2 (human)): 79.9%; residual activity (GRK6 (human)): 99.7%; residual activity (CDC42BPB (human)): 103%; residual activity (PRKCE (human)): 96%; residual activity (NUAK2 (human)): 128%; residual activity (MAPK1 (human)): 97.2%
CS(=O)c1ccc(-c2nc(-c3ccc(F)cc3)c(-c3ccncc3)[nH]2)cc1 (stereo unspecified) | 107 | 98.9 | 31 | 96.5 | 99.8 | 91.1 | 97.3 | 92.1 | 83.2 | 101 | 41.1 | 101 | 90.7 | 95.6 | 94.6 | 57.2 | 105 | 99.2 | 100 | 99.1 | residual activity (PDGFRB (human)): 103%; residual activity (ABL1 (human)): 97%; residual activity (CHUK (human)): 100%; residual activity [1]: 42.7%; residual activity (CLK2 (human)): 108%; residual activity (AURKA (human)): 99.5%; residual activity (FES (human)): 97.3%; residual activity (PBK (human)): 102%; residual activity (MYO3B (human)): 104%; residual activity (STK38 (human)): 105%; residual activity (ACVR1 (human)): 97.4%; residual activity (BRAF (human)): 78.8%; residual activity (MAP3K10 (human)): 104%; residual activity (GRK6 (human)): 102%; residual activity (CDC42BPB (human)): 105%; residual activity (PRKCE (human)): 115%; residual activity (NUAK2 (human)): 131%; residual activity (MAPK1 (human)): 94.7%
